Consider 33 compounds from ChEMBL document CHEMBL1201862, “PubChem BioAssay data set” (2004).

Some targets named below: Cytochrome P450 3A4 (Homo sapiens, UniProt P08684); Cytochrome P450 2C9 (Homo sapiens, UniProt P11712); Cytochrome P450 2D6 (Homo sapiens, UniProt P10635).
For the next test, the target named is Cytochrome P450 2C19 (Homo sapiens, UniProt P33261). Description: Cytochrome panel assay with activity outcomes. Panel member name: p450-cyp2c19 Compounds with AC50 equal or less than 10 uM are considered active. Format: functional. To be noted: read-out: AC50.
Test [1] in a line: HIV-1 AD8 envelope cell-cell fusion blockers – cherry-pick, dose response (AID 652062).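 Also: luciferase signal from cell-cell fusion driven by HIV-1 clade B AD8 Env; potency is for inhibitors of fusion seen as a drop in luminescence.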 Format: functional, cell-based.
Test [2] has as its target T1, Microphthalmia-associated transcription factor (Homo sapiens, UniProt O75030).
T1 sequence (O75030 whole entry): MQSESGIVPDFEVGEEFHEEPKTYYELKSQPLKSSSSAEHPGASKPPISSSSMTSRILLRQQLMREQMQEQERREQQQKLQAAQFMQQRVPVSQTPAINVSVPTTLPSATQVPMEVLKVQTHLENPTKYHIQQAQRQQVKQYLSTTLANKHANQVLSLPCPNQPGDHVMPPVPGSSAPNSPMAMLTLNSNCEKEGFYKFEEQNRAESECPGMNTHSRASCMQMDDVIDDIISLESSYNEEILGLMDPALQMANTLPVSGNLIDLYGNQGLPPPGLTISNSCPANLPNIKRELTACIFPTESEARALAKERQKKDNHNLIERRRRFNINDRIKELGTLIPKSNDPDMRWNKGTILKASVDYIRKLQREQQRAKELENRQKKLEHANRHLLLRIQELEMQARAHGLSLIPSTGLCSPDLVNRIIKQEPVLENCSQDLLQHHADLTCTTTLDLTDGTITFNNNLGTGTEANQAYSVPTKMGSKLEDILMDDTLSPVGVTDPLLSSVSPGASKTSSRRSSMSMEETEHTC
Briefly: reducers of TRPM1 reporter luminescence, concentration series – cell-based, SK-MEL-5, cherry-picked, set 3, MITF inhibitor project, dose response (AID 493073).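 Also: SK-MEL-5 melanoma cells with luciferase driven by the MITF target TRPM1 promoter.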 Format: functional.

Test [3] in a line: NIH-3T3 fibroblast cytotoxicity, dose response, cytotoxicity control, cell-based, fluorescence, Alamar Blue, secondary assay (AID 2327).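 Also: NIH-3T3 mouse fibroblasts cultured with fluconazole at 8 µg/mL.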 Format: functional. (In general: Alamar Blue is a resazurin reagent that responds to reducing activity.)
The nature of test [4]: fluconazole-exposed Candida albicans growth modulators – fluorescence, retest, confirmation (AID 2467). Format: functional, cell-based.
Test [5] has as its target Luciferin 4-monooxygenase (Photinus pyralis, UniProt P08659). Description: inhibition of purified Photinus pyralis luciferase – biochemical, luminescence, dose response (AID 1891).
Test [6] is described as follows: Luminescence Cell-Based Dose Confirmation HTS to Identify Inhibitors of Platelet Dense Granule Release. [Related pubchem assays: 1663 (Primary HTS), 1678 (Summary of Project)]. Format: functional.
Test [7] is described as follows: alpha-synuclein stem-loop luciferase translation blockers – H4 neuroglioma cells, luminescence, confirmation (AID 1988). Format: functional, cell-based.
Test [8] is described as follows: luciferase reporter signal suppression in cells – H4 neuroglioma cells, luminescence, dose response (AID 1990). Format: functional, cell-based. A general note: Reporter assays use an easily measured gene product as a stand-in for the process of interest.
Test [9] concerns BJ. Description: BJ-TERT-LT-ST fibroblast viability loss – cell-based, RAS-independent, luminescence, dose response (AID 1935).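 Also: BJ fibroblasts immortalized with TERT plus LT and ST oncogenes.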 Format: functional. The conditions noted are these: Homo sapiens.
Test [10] can be described thus: Luminescence Cell-Based Dose Response HTS to Identify Inhibitors of 5'UTR Stem-Loop Driven Prion Protein mRNA Translation in H4 Neuroglioblastoma Cells. [Related pubchem assays: 1827 (Project Summary), 1813 (Primary HTS)]. Format: functional.
In test [11] the test system is Streptococcus sp. 'group A'. Briefly: Streptococcus pyogenes SK(-)GAS viability under kanamycin – luminescence, BacTiterGlo, confirmation, counter-screen for streptokinase expression inhibitor project, dose response (AID 1900). Format: functional, organism-based. In general terms: A counterscreen serves to expose hits that act by an unwanted route or on another target.

Test [12] has as its system BJ. Description: cells. To be noted: Homo sapiens. Format: functional, cell-based.
The nature of test [13]: DRD fibroblast viability loss – cell-based, non-viral oncogenic, luminescence, dose response (AID 1934). The conditions noted are these: Homo sapiens. Format: functional.
Another test relates to Streptococcus. Briefly: GAS UMAA2166 growth inhibition – luminescence, BacTiterGlo, counter-screen for streptokinase expression inhibitor project, dose response (AID 1915).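 Also: potency for reduction of bacterial viability or growth.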 Format: functional, organism-based.
Test [14] relates to BJ. Briefly: BJ-TERT fibroblast viability loss – cell-based, RAS-independent, luminescence, dose response (AID 1933). Format: functional. The conditions noted are these: Homo sapiens.
The next test deals with T2, Streptokinase A (Streptococcus pyogenes serotype M1, UniProt P10520).
T2 sequence (P10520 whole entry): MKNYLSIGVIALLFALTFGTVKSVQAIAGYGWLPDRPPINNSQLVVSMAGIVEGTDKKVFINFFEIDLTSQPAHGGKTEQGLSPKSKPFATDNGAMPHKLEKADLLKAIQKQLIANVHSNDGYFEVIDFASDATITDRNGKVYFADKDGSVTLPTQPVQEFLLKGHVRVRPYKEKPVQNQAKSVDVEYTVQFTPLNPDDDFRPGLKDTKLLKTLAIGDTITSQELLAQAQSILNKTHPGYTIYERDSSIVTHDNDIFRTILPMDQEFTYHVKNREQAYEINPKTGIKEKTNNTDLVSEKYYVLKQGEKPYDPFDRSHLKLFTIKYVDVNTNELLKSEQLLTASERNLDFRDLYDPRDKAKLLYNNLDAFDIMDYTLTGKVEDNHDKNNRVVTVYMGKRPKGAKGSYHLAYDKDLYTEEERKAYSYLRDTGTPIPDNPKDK
Briefly: viability-normalized secreted streptokinase activity reduction – plasminogen activation absorbance, OD405, dose response (AID 1914).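 Also: secreted streptokinase activity via plasminogen activation per viability signal from cell pellet.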 Format: functional, Streptococcus pyogenes M1 GAS.

Test [15] in a line: NIH3T3 cell viability loss – ATP luminescence, mouse fibroblasts, counter-screen, dose response (AID 2010).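 Also: cells exposed to compound for about 90 hours before reading.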 Format: functional, cell-based.
Test [16] is described as follows: Trypanosoma cruzi growth suppression in host cells – NIH3T3 host cells, beta-gal luminescence, confirmation (AID 2044).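 Also: intracellular parasites grown in NIH/3T3 mouse fibroblasts as host cells; luminescent beta-galactosidase reporter signal from transgenic T. cruzi replicating inside host cells; inhibitors lower the luminescence signal.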 Format: functional, cell-based.
Test [17] in a line: Luminescence Cell-Based Dose Response HTS to Identify Activators of Luciferase Translation or Activity in H4 […] Cells. [Related pubchem assays: 1829 (Project Summary), 1814 (Primary HTS)]. Format: functional.
The test system of the next test is SN12K1. Description: cells. Format: functional.
The next test has as its system P388/ADR. Description: cells. Format: functional.
Another test has as its system P388. Description: cells. Format: functional.

Active and inactive are the calls of the source.

Sequence of Luciferin 4-monooxygenase (P08659 whole entry): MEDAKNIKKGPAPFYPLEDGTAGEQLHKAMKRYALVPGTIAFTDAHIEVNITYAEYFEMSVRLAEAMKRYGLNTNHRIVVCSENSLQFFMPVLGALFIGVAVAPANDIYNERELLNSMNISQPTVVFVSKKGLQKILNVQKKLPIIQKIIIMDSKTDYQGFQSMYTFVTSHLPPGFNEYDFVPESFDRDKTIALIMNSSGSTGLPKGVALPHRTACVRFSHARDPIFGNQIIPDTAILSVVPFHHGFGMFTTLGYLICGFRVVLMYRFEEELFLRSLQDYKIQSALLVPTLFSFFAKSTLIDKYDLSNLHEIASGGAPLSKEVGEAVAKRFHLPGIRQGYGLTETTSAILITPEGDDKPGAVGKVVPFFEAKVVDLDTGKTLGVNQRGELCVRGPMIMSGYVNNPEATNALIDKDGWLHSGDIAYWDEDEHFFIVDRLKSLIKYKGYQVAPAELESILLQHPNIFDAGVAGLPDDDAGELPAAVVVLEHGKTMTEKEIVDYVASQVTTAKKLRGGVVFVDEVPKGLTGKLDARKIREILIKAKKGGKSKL
Sequence of Cytochrome P450 3A4 (P08684 whole entry): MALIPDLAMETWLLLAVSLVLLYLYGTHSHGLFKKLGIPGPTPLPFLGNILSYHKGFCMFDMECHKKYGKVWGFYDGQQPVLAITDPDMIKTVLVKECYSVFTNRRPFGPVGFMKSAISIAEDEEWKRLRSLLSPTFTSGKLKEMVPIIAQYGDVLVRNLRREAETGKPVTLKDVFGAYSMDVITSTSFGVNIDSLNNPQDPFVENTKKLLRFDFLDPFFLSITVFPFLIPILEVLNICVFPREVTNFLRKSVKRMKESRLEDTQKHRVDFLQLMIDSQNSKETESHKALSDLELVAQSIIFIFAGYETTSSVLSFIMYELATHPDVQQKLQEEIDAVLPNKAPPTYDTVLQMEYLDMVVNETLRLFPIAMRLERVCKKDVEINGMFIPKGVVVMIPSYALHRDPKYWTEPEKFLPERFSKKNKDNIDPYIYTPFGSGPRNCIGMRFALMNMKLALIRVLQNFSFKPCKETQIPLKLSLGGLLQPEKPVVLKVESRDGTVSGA
Sequence of Cytochrome P450 2D6 (P10635 whole entry): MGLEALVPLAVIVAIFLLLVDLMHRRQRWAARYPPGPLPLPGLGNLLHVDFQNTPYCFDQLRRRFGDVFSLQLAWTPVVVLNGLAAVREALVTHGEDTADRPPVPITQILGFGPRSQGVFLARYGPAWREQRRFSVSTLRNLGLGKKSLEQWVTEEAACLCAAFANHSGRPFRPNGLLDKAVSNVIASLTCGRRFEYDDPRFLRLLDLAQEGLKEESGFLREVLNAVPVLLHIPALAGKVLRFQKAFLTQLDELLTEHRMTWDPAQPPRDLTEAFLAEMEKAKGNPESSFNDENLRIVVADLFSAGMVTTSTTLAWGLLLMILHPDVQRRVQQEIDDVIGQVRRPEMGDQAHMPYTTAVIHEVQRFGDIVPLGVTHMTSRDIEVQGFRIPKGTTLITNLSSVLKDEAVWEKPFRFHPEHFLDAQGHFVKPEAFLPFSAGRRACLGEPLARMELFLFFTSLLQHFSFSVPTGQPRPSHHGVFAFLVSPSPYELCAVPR
Sequence of Cytochrome P450 2C9 (P11712 whole entry): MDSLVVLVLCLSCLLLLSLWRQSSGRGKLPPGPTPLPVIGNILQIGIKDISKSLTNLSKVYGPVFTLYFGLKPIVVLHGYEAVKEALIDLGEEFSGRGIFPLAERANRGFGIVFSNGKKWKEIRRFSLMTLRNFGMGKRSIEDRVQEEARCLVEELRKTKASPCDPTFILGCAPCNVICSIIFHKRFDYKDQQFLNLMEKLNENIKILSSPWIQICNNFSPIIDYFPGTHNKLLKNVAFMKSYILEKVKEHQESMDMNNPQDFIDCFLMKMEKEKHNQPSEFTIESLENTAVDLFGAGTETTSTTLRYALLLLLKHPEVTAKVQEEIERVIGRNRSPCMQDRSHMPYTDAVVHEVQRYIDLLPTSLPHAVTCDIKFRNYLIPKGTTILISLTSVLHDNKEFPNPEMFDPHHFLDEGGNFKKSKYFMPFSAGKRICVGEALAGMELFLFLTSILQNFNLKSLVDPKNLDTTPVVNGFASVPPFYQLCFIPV
Sequence of Cytochrome P450 2C19 (P33261 whole entry, the tested form may be a part): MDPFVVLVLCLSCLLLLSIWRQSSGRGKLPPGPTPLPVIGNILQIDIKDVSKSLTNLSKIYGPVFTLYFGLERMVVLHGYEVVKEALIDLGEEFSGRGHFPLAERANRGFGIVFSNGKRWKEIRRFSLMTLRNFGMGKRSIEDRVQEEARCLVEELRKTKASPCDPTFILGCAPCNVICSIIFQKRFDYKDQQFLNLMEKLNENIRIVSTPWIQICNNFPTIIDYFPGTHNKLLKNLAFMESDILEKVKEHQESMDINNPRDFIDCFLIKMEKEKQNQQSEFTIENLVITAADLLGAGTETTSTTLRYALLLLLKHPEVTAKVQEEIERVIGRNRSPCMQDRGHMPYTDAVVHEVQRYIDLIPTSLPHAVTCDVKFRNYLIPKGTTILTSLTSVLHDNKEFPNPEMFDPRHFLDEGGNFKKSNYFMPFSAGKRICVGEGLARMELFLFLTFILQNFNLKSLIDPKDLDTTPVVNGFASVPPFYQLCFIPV

For the compound `C[C@H](NC[C@H](O)CP(=O)(O)CC1CCCCC1)c1ccc(Cl)c(Cl)c1`, the AC50 at Cytochrome P450 3A4 is 31.6 µM (inconclusive).
For `C[C@@H]1CCCN(CP(=O)(c2ccccc2)c2ccccc2)C1`, the AC50 at Cytochrome P450 2C19 was 0.126 µM (inconclusive); at Cytochrome P450 3A4 it was 3.98 µM (inconclusive).
Consider `Cc1ccc(-n2nnnc2SCn2nnc3ccccc3c2=O)c(C)c1`, for which the AC50 in [1] was 30.1 µM (active).
Consider `COC(=O)[C@H]1C[C@@H]1[C@H](NC(=O)OCc1ccccc1)c1ccccc1`, for which the AC50 at Cytochrome P450 3A4 is 25.1 µM (inconclusive).
In the case of `Cn1nnnc1Sc1ncnc2scc(-c3cccs3)c12`, the AC50 in test [2] was 7 µM (active).
As for `Cn1c(=O)c(C(=O)NCCc2ccccc2)c(O)c2ccccc21`, the results for the EC50 in [3] and in test [4] were > 150 µM (inactive) and > 38 µM (not active), respectively.
Consider `COC(=O)N1CCC[C@@]2(CCN(C(=O)Nc3ccc(OC)cc3)C2)C1`, for which the AC50 on Cytochrome P450 3A4 is 10 µM (inconclusive); at Cytochrome P450 2C9, 20 µM (inconclusive).
For `O=C(COc1ccc(C(=O)c2ccccc2)cc1)NC1CCCCC1`, the EC50 in test [5] and in test [6] was > 112 µM (not active) throughout.
Take `CCn1c(O)c(N=NC(=O)c2ccc(CSc3nncn3C)cc2)c2ccccc21`: the EC50 in test [5] and in [6] was > 112 µM (not active) each time.
As for `O=C(/C=C/c1ccccc1)NCC1(c2ccccc2)CCOCC1`, the EC50 in [5] and in test [6] was > 112 µM (not active) throughout.
`O=C(c1ccncc1)N1CCC[C@@]2(CCN(c3ncccn3)C2)C1`: the results for the AC50 on Cytochrome P450 2C19, on Cytochrome P450 3A4 and on Cytochrome P450 2C9 were 25.1 µM (inconclusive), 15.8 µM (inconclusive) and 20 µM (inconclusive), respectively.
For `CCCCCCN1C=CC(=C/C=C(\C#N)C(=O)OCC)C=C1`, the values for the AC50 at Cytochrome P450 3A4 and on Cytochrome P450 2D6 were 15.8 µM (inconclusive) and 14.1 µM (inconclusive), respectively.
Consider `CSc1nc(Oc2ccc3ccccc3c2)c2sccc2n1`, for which the concentration giving a half-maximal response (EC50) in [7] is 8.16 µM (active); in test [8] it was 12.9 µM (active); in the test on BJ [9] it was 13.6 µM (inconclusive); in [10], > 120 µM (not active); in test [11], 34.3 µM (active); in the test with BJ [12] it was 52.3 µM (active). Moreover, the EC50 in test [13] is 12.8 µM (inconclusive); in the test with Streptococcus, > 150 µM (not active); in the test with BJ [14] it was 12.5 µM (active); at Streptokinase A it was 39.1 µM (active).
Turning to `O=C(c1ccccc1)c1ccc(NCCCn2ccnc2)c([N+](=O)[O-])c1`, the EC50 with BJ [9] was > 150 µM (inconclusive); in test [15], > 60 µM (not active); with BJ [12] it was > 150 µM (not active); in test [13] it was 147 µM (active); in test [16], 1.8 µM (active); with BJ [14], > 150 µM (not active).
As for `CCOC(=O)Cn1c(=O)n(Cc2ccco2)c(=O)c2ccc(C(=O)NC3CCCC3)cc21`, the results for the EC50 in [5] and in [6] were > 112 µM (not active) and 13.8 µM (active), respectively.
`CCC(CC)C(=O)Nc1ccc(C)c(O)c1`: the AC50 at Cytochrome P450 3A4 was 4.47 µM (inconclusive).
On to `CCC(=O)Nc1cccc(-c2nnc(SCC(=O)c3ccccc3)n2C)c1`, for which the EC50 in test [17] is 47.5 µM (active).
Regarding `CCOc1ccc(OCc2ccc(C(=O)NCc3cccnc3)o2)cc1`, the concentration for a half-maximal effect (EC50) in test [5] and in test [6] was > 112 µM (not active) throughout. In addition, on Cytochrome P450 2D6, the AC50 was 1.26 µM (inconclusive).
For `Cc1noc(C)c1C(=O)N1CCC2(CCCN(Cc3ccccc3)C2)CC1`, the AC50 at Cytochrome P450 3A4 is 25.1 µM (inconclusive).
With `Cc1ccc(C(=O)/C=C/c2c[nH]c3ccccc23)cc1`, the results for the AC50 at Cytochrome P450 3A4 and on Cytochrome P450 2D6 were 25.1 µM (inconclusive) and 22.4 µM (inconclusive), respectively.
As for `CN(NC(=O)c1ccccc1)c1nc2ccccc2nc1C(F)(F)F`, the EC50 with BJ [9] was 17.3 µM (active); in the test with BJ [12], 26.9 µM (active); in test [13], 16.5 µM (active); in the test on BJ [14], 18.4 µM (active).
In the case of `CC(=O)c1ncnn1CC(=O)c1ccc(Cl)cc1Cl`, the EC50 in test [3] was 21.9 µM (inconclusive); in test [4] it was 1.37 µM (active).
As for `CC(C)CN1CC[C@@]2(CCCN(C(=O)c3cnccn3)C2)C1`, the AC50 on Cytochrome P450 3A4 is 15.8 µM (inconclusive).
`CCCC(O)(CCC)C(=O)NNc1ccc(C)cc1`: the EC50 was > 160 µM (inconclusive) in test [3] and > 38 µM (not active) in test [4].
Consider `CC(C)c1ccc(C(=O)OC2CCOC2=O)cc1` (stereo not drawn), for which the EC50 in test [5] and in test [6] was > 112 µM (not active) throughout.
Consider `CCc1cc(=O)oc2cc(C)cc(OCC(=O)NCc3cccnc3)c12`, for which the EC50 in test [5] and in test [6] was > 112 µM (not active) each time.
Turning to `COc1ccc(C(O)c2nc3ccccc3n2C)cc1OC` (stereo not drawn), in [1], the AC50 is 3.4 µM (active).
For `CO[C@@H]1/C=C\CC(=O)N[C@@H](C)C(=O)OC[C@H](NS(=O)(=O)c2ccc(C)cc2)[C@H](C)/C=C\CC(=O)OC[C@H]1C`, the half-maximal activity concentration (AC50) on Cytochrome P450 3A4 was 3.98 µM (inconclusive).
`O=C(N/N=C/c1ccco1)c1cc(-c2ccncc2)nc2ccccc12`: the EC50 is > 75 µM (not active) with BJ [9], 60.7 µM (active) with BJ [12], 23.3 µM (active) in test [13] and 15.2 µM (active) with BJ [14].
For the compound `Oc1c(Cl)cccc1/C=N/c1cc(C(F)(F)F)ccc1N1CCCC1`, the EC50 in test [5] and in [6] was > 112 µM (not active) throughout.
Consider `C/C(=N\NC(=O)C1CCCC1)c1ccc(Cl)c(Cl)c1`, for which the EC50 in test [3] was > 150 µM (inactive); in test [4] it was > 38 µM (not active).
Regarding `COC(C(=O)C(O)C(C)O)C1Cc2cc3cc(OC4CC(OC(C)=O)C(OC5CC(O)C(OC)C(C)O5)C(C)O4)cc(O)c3c(O)c2C(=O)C1OC1CC(OC2CC(OC3CC(C)(O)C(OC(=O)C(C)C)C(C)O3)C(O)C(C)O2)C(O)C(C)O1` (stereo not drawn), the GI50 is 0.00895 µM (active) in the test on SN12K1; 0.01 µM (active) in the test with SN12K1 (Homo sapiens, SN12K1); 5.12 µM (inactive) in the test with P388/ADR; 5.98 µM (inactive) in the test with P388/ADR (Mus musculus, P388/ADR); 0.0075 µM (active) with P388; 0.0123 µM (active) with P388 (Mus musculus, P388).
With `OCC1OC(n2cnc3c(NC4CCCC4)ncnc32)C(O)C1O` (stereo not drawn), the EC50 in [5] was > 112 µM (not active); in [6], 1.09 µM (active).

For orientation: AC50 means the concentration giving half of the maximal activity seen. As usually defined, the EC50 is the concentration at which the effect is half-maximal. Broadly, the GI50 is the concentration giving 50% growth inhibition.
